Values of other authors as cited in patent US20140057918A1, “Methods of Use for Monomethyl Fumarate and Prodrugs Thereof” (XenoPort, Inc., priority 2012, published 2014).
Counter-ions that a name gives are not always drawn.

What was measured:
herpes simplex virus = conditions: animals infected with the herpes simplex virus

SMILES: COC(=O)/C=C/C(=O)OC [Dimethyl fumarate, Dimethyl (E)-butenedioate]
- aqueous solubility: poor
- herpes stromal keratitis (herpes simplex virus): improved
